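Abbreviation: GI50, concentration required for 50% inhibition of growth. At the TGI there is no net growth.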
Columns and labels:
Experiment in all cases: DTP human tumour cell line panel, 384-well format
[1] = test system: NCI-H522 lung
[2] = test system: MALME-3M melanoma
[3] = test system: UO-31 renal
[4] = test system: BT-549 breast
[5] = test system: SNB-75 CNS
[6] = test system: SF-268 CNS
[7] = test system: HCC-2998 colon
[8] = test system: HT29 colon
[9] = test system: MOLT-4 leukemia
[10] = test system: A498 renal
[11] = test system: CCRF-CEM leukemia
[12] = test system: SK-OV-3 ovarian
[13] = test system: HOP-92 NSCLC
[14] = test system: RPMI-8226 leukemia
[15] = test system: NCI-H460 NSCLC
[16] = test system: OVCAR-3 ovarian
[17] = test system: EKVX NSCLC
[18] = test system: SN12C renal
[19] = test system: SW-620 colon
[20] = test system: CAKI-1 renal
[21] = test system: RXF 393 renal
[22] = test system: OVCAR-8 ovarian
[23] = test system: LOX IMVI melanoma
[24] = test system: K-562 leukemia
[25] = test system: MCF7 breast
[26] = test system: NCI-H23 lung
[27] = test system: ACHN renal
[28] = test system: OVCAR-5 ovarian
[29] = test system: UACC-257 melanoma

SMILES: Cc1ccc(NC(=O)c2ccnc(C(F)(F)F)c2)cc1-c1cc(OCCO)nc(N2CCOCC2)c1
- GI50 [1]: 274 nM
- TGI [1]: 755 nM
- GI50 [2]: 85.6 nM
- TGI [2]: 316 nM
- GI50 [3]: 1120 nM
- TGI [3]: 3410 nM
- GI50 [4]: 1210 nM
- TGI [4]: 6680 nM
- GI50 [5]: 1340 nM
- TGI [5]: 9720 nM
- GI50 [6]: 211 nM
- TGI [6]: 532 nM
- GI50 [7]: 224 nM
- TGI [7]: 1270 nM
- GI50 [8]: 306 nM
- TGI [8]: 1990 nM
- GI50 [9]: 172 nM
- TGI [9]: 317 nM
- GI50 [10]: 1200 nM
- TGI [10]: 7920 nM
- GI50 [11]: 385 nM
- TGI [11]: 1460 nM
- GI50 [12]: 1780 nM
- TGI [12]: 17800 nM
- GI50 [13]: 928 nM
- TGI [13]: 3490 nM
- GI50 [14]: 344 nM
- TGI [14]: 974 nM
- GI50 [15]: 379 nM
- TGI [15]: 10600 nM
- GI50 [16]: 461 nM
- TGI [16]: 1790 nM
- GI50 [17]: 2850 nM
- TGI [17]: 14800 nM
- GI50 [18]: 1180 nM
- TGI [18]: 10400 nM
- GI50 [19]: 282 nM
- TGI [19]: 10500 nM
- GI50 [20]: 847 nM
- TGI [20]: 18100 nM
- GI50 [21]: 342 nM
- TGI [21]: 1960 nM
- GI50 [22]: 777 nM
- TGI [22]: 4600 nM
- GI50 [23]: 171 nM
- TGI [23]: 1170 nM
- GI50 [24]: 428 nM
- TGI [24]: 1720 nM
- GI50 [25]: 951 nM
- TGI [25]: 10900 nM
- GI50 [26]: 79.2 nM
- TGI [26]: 1100 nM
- GI50 [27]: 787 nM
- TGI [27]: 12300 nM
- GI50 [28]: 675 nM
- TGI [28]: 8880 nM
- GI50 [29]: 272 nM
- TGI [29]: 1310 nM

From PubChem BioAssay (NCI)
